Data on 35 compounds can be found in patent US6869957B1, “Non-peptide tachykinin receptor antagonists” (Eli Lilly and Company, priority 1993, dated 2005).

The target of one experiment is T1, NK-1 receptor (Homo sapiens, UniProt P25103).
T1 construct: endogenous in cells; host or cells: IM9 cells (human cell line), whole cells
In words: NK-1 Receptor Binding Assay (125I-labeled substance P, IM9 cells). As to conditions: for IC50: inhibits fifty percent of binding of 125I-substance P to IM9 cells; for NK-1 percent inhibition of binding: @ 1 μM. Summed up: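 Radioligand binding on human IM9 cells, ended by filtration over glass fiber filters presoaked in 0.1% polyethylenimine. Specific binding of labeled substance P defined with 20 nM unlabeled ligand.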

The target of a further experiment is T2, human NK-2 receptor (Homo sapiens, UniProt P21452).
T2 construct: expressed in transfected cells; host or cells: CHO-hNK-2R cells (CHO-derived), membrane preparation
T2 sequence (P21452 1-398): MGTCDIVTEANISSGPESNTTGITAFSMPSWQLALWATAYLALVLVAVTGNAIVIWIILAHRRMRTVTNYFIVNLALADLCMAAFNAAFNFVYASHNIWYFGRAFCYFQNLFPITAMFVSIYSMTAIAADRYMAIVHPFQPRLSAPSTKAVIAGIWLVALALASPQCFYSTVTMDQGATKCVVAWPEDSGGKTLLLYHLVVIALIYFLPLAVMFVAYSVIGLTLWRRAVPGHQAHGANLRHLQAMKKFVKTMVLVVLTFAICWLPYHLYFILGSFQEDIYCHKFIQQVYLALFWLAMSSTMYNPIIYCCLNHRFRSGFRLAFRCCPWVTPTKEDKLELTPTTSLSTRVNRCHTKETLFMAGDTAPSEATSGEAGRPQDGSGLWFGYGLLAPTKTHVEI
Description: NK-2 Receptor Binding Assay ([125I]iodohistidyl-neurokinin A, CHO-hNK-2R membranes). The settings on record: for IC50: inhibits fifty percent of binding of [125I]iodohistidyl-neurokinin A to CHO-hNK-2R membranes. As to the method: The biological activity of the compounds of the present invention was evaluated employing an initial screening assay which rapidly and accurately measured the binding of the tested compound to known NK-1 and NK-2 receptor sites. Assays useful for evaluating tachykinin receptor antagonists are well known in the art. See. e.g., J. Jukic, et al., Life Sciences, 49:1463-1469 (1991); N. Kucharczyk, et al., Journal of Medicinal Chemistry, 36:1654-1661 (1993); N. Rouissi, et al., Biochemical and Biophysical Research Communications, 176:894-901 (1991).
NK-2 Receptor Binding Assay
The CHO-hNK-2R cells, a CHO-derived cell line transformed with the human NK-2 receptor, expressing about 400,000 such receptors per cell, were grown in 75 cm^2 flasks or roller bottles in minimal essential medium (alpha modification) with 10% fetal bovine serum. The gene sequence of the human NK-2 receptor is given in N. P. Gerard, et al., Journal of Biological Chemistry, 265:20455-20462 (1990).
For preparation of membranes, 30 confluent roller bottle cultures were dissociated by washing each roller bottle with 10 ml of Dulbecco's phosphate buffered saline (PBS) without calcium and magnesium, followed by addition of 10 ml of enzyme-free cell dissociation solution (PBS-based, from Specialty Media, Inc.). After an additional 15 minutes, the dissociated cells were pooled and centrifuged at 1,000 RPM for 10 minutes in a clinical centrifuge. Membranes were prepared by homogenization of the cell pellets in 300 ml 50 mM Tris buffer, pH 7.4 with a Tekma® homogenizer for 10-15 seconds, followed by centrifugation at 12,000 RPM (20,000×g) for 30 minutes using a Beckman JA-14® rotor. The pellets were washed once using the above procedure. and the final pellets were resuspended in 100-120 ml 50 mM Tris buffer, pH 7.4, and 4 ml aliquots stored frozen at −70° C. The protein concentration of this preparation was 2 mg/ml.
For the receptor binding assay, one 4-ml aliquot of the CHO-hNK-2R membrane preparation was suspended in 40 ml of assay buffer containing 50 mM Tris, pH 7.4, 3 mM manganese chloride, 0.02% bovine serum albumin (BSA) and 4 μg/ml chymostatin. A 200 μl volume of the homogenate (40 μg protein) was used per sample. The radioactive ligand was [^125I]iodohistidyl-neurokinin A (New England Nuclear, NEX-252), 2200 Ci/mmol. The ligand was prepared in assay buffer at 20 nCi per 100 μl; the final concentration in the assay was 20 pM. Non-specific binding was determined using 1 μM eledoisin. Ten concentrations of eledoisin from 0.1 to 1000 nM were used for a standard concentration-response curve.
All samples and standards were added to the incubation in 10 μl dimethylsulfoxide (DMSO) for screening (single dose) or in 5 μl DMSO for IC50 determinations. The order of additions for incubation was 190 or 195 μl assay buffer, 200 μl homogenate, 10 or 5 μl sample in DMSO, 100 μl radioactive ligand. The samples were incubated 1 hr at room temperature and then filtered on a 48 well Brandel cell harvester through GF/B filters which had been presoaked for two hours in 50 mM Tris buffer, pH 7.7, containing 0.5% BSA. The filter was washed 3 times with approximately 3 ml of cold 50 mm Tris buffer, pH 7.7. The filter circles were then punched into 12×75 mm polystyrene tubes and counted in a gamma counter.

T1 sequence (P25103 whole entry): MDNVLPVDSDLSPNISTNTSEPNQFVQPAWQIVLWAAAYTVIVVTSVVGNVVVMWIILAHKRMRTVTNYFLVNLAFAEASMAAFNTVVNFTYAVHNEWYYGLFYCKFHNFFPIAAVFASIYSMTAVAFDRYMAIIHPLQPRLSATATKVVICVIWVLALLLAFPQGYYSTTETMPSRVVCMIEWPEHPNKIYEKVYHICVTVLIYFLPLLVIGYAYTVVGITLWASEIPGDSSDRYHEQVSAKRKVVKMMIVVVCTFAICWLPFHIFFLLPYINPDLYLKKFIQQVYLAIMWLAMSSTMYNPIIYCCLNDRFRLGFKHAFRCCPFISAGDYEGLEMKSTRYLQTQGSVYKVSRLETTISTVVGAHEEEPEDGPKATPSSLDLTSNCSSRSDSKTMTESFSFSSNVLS

In general, IC50 refers to the concentration that inhibits the measured activity by half. The low end stands for higher potency, the high end for lower potency. As for `COc1ccccc1CN(CC(Cc1c[nH]c2ccccc12)NC(=O)CNCc1cccnc1)C(C)=O` (stereo not shown) [Example 82], the IC50 at NK-1 receptor turned out to be 13 nM; on human NK-2 receptor it was 1200 nM.
Taken in the same sequence, the figures for `COc1ccccc1CN(CC(Cc1c[nH]c2ccccc12)NC(=O)CNCc1ccncc1)C(C)=O` (stereo not shown) [Example 83] were 8.4 nM and 5200 nM.
Taken in the same sequence, the figures for `COc1ccccc1CN(CC(Cc1c[nH]c2ccccc12)NC(=O)c1ccccc1)C(C)=O` (stereo not shown) [Example 88] were 120 nM and 5600 nM.
For the compound `COc1ccccc1CN(CC(Cc1c[nH]c2ccccc12)NC(=O)CCCc1ccccc1)C(C)=O` (stereo not shown) [Example 94], the half-inhibitory concentration (IC50) on NK-1 receptor turned out to be 85 nM; on human NK-2 receptor, 760 nM.
Take `COc1ccccc1CN(CC(Cc1c[nH]c2ccccc12)NC(=O)CCCC(=O)c1ccccc1)C(C)=O` (stereo not shown) [Example 98]: the concentration for half-maximal inhibition (IC50) turned out to be 21 nM on NK-1 receptor and 600 nM on human NK-2 receptor.
In the case of `CC(=O)NC(Cc1c[nH]c2ccccc12)CN(C(C)=O)C(C)c1ccccc1` (stereo not shown) [Example 99], at NK-1 receptor, the “NK-1 percent inhibition of binding” value was 15% @. Further, the “NK-2 percent inhibition of binding” value at human NK-2 receptor (@ 10 μM) was determined as 54% @.
As to `CC(=O)NC(Cc1c[nH]c2ccccc12)CN(C(C)=O)C(C)c1ccccc1` (stereo not shown) [Example 100], the “NK-1 percent inhibition of binding” value on NK-1 receptor worked out at 77% @. On human NK-2 receptor (@ 10 μM), the “NK-2 percent inhibition of binding” value came out at 40% @.
Regarding `CC(NCC(Cc1c[nH]c2ccccc12)NC(=O)CN1CCC(N2CCCCC2)CC1)c1ccccc1` (stereo not shown) [Example 101], the results for the IC50 on NK-1 receptor and on human NK-2 receptor were 97 nM and 6000 nM, respectively.
Compound `CC(NCC(Cc1c[nH]c2ccccc12)NC(=O)CN1CCC(N2CCCCC2)CC1)c1ccccc1` (stereo not shown) [Example 102] gave a 50% inhibitory concentration (IC50) on NK-1 receptor of 210 nM. In addition, on human NK-2 receptor (@ 10 μM), the “NK-2 percent inhibition of binding” value was 59% @.
Turning to `CC(=O)N(CC(Cc1c[nH]c2ccccc12)NC(=O)CN1CCC(N2CCCCC2)CC1)C(C)c1ccccc1` (stereo not shown) [Example 103], the half-inhibitory concentration (IC50) is 82 nM on NK-1 receptor and 3700 nM at human NK-2 receptor.
Taken in the same sequence, the figures for `CC(=O)N(CC(Cc1c[nH]c2ccccc12)NC(=O)CN1CCC(N2CCCCC2)CC1)C(C)c1ccccc1` (stereo not shown) [Example 104] were 0.62 nM and 1600 nM.
Taken in the same sequence, the figures for `COc1ccccc1CNCC(Cc1c[nH]c2ccccc12)NC(C)=O` (stereo not shown) [Example 105] were 630 nM and 15200 nM.
For orientation: inhibition means how much of the control response was suppressed. Compound `COc1ccccc1CN(CC(Cc1c[nH]c2ccccc12)NC(C)=O)C(C)=O` (stereo not shown) [Example 106] displayed an IC50 at NK-1 receptor of 68 nM. In addition, the inhibition at 10 µM at human NK-2 receptor (@ 10 μM, read-out: NK-2 percent inhibition of binding) was found to be 33%.
With `COc1ccccc1CN(CC(Cc1c[nH]c2ccccc12)NC(C)=O)C(=O)CN1CCN(c2ccccc2)CC1` (stereo not shown) [Example 107], the “NK-1 percent inhibition of binding” value at NK-1 receptor is 74% @. Besides, the half-inhibitory concentration (IC50) on human NK-2 receptor was 420 nM.
Taken in the same sequence, the figures for `CC(=O)NC(Cc1c[nH]c2ccccc12)CN(Cc1ccccc1)C(=O)CN1CCC(N2CCCCC2)CC1` (stereo not shown) [Example 108] were 76% @ and 3500 nM.
Take `CC(=O)NC(Cc1c[nH]c2ccccc12)CN(Cc1ccccc1Cl)C(=O)CN1CCC(N2CCCCC2)CC1` (stereo not shown) [Example 109]: the IC50 at NK-1 receptor turned out to be 190 nM; on human NK-2 receptor, 2000 nM.
The matching figures for `CC(=O)NC(Cc1c[nH]c2ccccc12)CN(CCc1ccccc1)C(=O)CN1CCN(c2ccccc2)CC1` (stereo not shown) [Example 110]: 148 nM and 120 nM.
Taken in the same sequence, the figures for `COc1ccccc1CNCC(Cc1c[nH]c2ccc(Br)cc12)NC(=O)CN1CCN(c2ccccc2)CC1` (stereo not shown) [Example 111] were 1200 nM and 490 nM.
Consider `COc1ccccc1CN(CC(Cc1cn(C)c2ccccc12)NC(=O)CN1CCN(c2ccccc2)CC1)C(C)=O` (stereo not shown) [Example 113], for which the concentration for half-maximal inhibition (IC50) on NK-1 receptor is 7.8 nM; at human NK-2 receptor it was 1200 nM.
The matching figures for `COc1ccccc1CN(CC(Cc1c[nH]c2cc(C)ccc12)NC(=O)CN1CCN(c2ccccc2)CC1)C(C)=O` (stereo not shown) [Example 114]: 29.2 nM and 940 nM.
Taken in the same sequence, the figures for `COc1ccccc1CN(CC(Cc1c[nH]c2ccc(Br)cc12)NC(=O)CN1CCN(c2ccccc2)CC1)C(C)=O` (stereo not shown) [Example 116] were 58 nM and 930 nM.
`CC(=O)N(Cc1ccccc1)CC(Cc1c[nH]c2ccc(F)cc12)NC(=O)CN1CCC(N2CCCCC2)CC1` (stereo not shown) [Example 119]: the 50% inhibitory concentration (IC50) at NK-1 receptor was determined as 9.5 nM; on human NK-2 receptor, 2700 nM.
The matching figures for `COc1ccccc1CNCC(Cc1c[nH]c2cc(F)ccc12)NC(=O)CN1CCC(N2CCCCC2)CC1` (stereo not shown) [Example 123]: 27 nM and 2500 nM.
Regarding `COc1ccccc1CN(CC(Cc1cn(C)c2ccccc12)NC(=O)CN1CCC(N2CCCCC2)CC1)C(C)=O` (stereo not shown) [Example 124], the IC50 on NK-1 receptor is 0.93 nM; on human NK-2 receptor, 1400 nM.
The matching figures for `COc1ccccc1CN(CC(Cc1c[nH]c2cccc(C)c12)NC(=O)CN1CCC(N2CCCCC2)CC1)C(C)=O` (stereo not shown) [Example 125]: 0.66 nM and 2100 nM.
Taken in the same sequence, the figures for `COc1ccccc1CN(CC(Cc1c[nH]c2ccc(C)cc12)NC(=O)CN1CCC(N2CCCCC2)CC1)C(C)=O` (stereo not shown) [Example 126] were 2.8 nM and 3400 nM.
On to `COc1ccccc1CN(CC(Cc1c[nH]c2cc(C)ccc12)NC(=O)CN1CCC(N2CCCCC2)CC1)C(C)=O` (stereo not shown) [Example 127], for which the IC50 stood at 7.3 nM at NK-1 receptor and 3000 nM at human NK-2 receptor.
On to `COc1ccccc1CNCC(Cc1cccc2ccccc12)NC(=O)CN1CCN(c2ccccc2)CC1` (stereo not shown) [Example 135], for which the “NK-1 percent inhibition of binding” value on NK-1 receptor was determined as 75% @. Further, at human NK-2 receptor, the IC50 turned out to be 430 nM.
Take `COc1ccccc1CNCC(Cc1ccc2ccccc2c1)NC(=O)CN1CCN(c2ccccc2)CC1` (stereo not shown) [Example 136]: the “NK-1 percent inhibition of binding” value at NK-1 receptor is given as 47% @. Moreover, the IC50 on human NK-2 receptor was 710 nM.
Take `COc1ccccc1CN(CC(NC(=O)CN1CCN(c2ccccc2)CC1)c1ccccc1)C(C)=O` (stereo not shown) [Example 138]: the 50% inhibitory concentration (IC50) on NK-1 receptor came to 770 nM; at human NK-2 receptor it was 2500 nM.
For `COc1ccccc1CN(CC(NC(=O)CN1CCN(c2ccccc2)CC1)c1ccc(Cl)c(Cl)c1)C(C)=O` (stereo not shown) [Example 139], the IC50 is 396 nM on NK-1 receptor and 580 nM on human NK-2 receptor.
Taken in the same sequence, the figures for `COc1ccccc1CN(CC(Cc1ccccc1)NC(=O)CN1CCN(c2ccccc2)CC1)C(C)=O` (stereo not shown) [Example 140] were 3.1 nM and 3000 nM.
Taken in the same sequence, the figures for `COc1ccccc1CN(CC(Cc1cccc2ccccc12)NC(=O)CN1CCN(c2ccccc2)CC1)C(C)=O` (stereo not shown) [Example 141] were 11 nM and 260 nM.
Taken in the same sequence, the figures for `COc1ccccc1CN(CC(Cc1ccc2ccccc2c1)NC(=O)CN1CCN(c2ccccc2)CC1)C(C)=O` (stereo not shown) [Example 142] were 8.6 nM and 830 nM.
For the compound `COc1ccccc1CN(CC(NC(=O)CN1CCC(N2CCCCC2)CC1)c1ccccc1)C(C)=O` (stereo not shown) [Example 146], the concentration for half-maximal inhibition (IC50) at NK-1 receptor was found to be 420 nM; on human NK-2 receptor, 3900 nM.
